Results published in patent US20230295234A1, “ANTIMICROBIAL PEPTIDOMIMETICS” (SPEXIS AG, priority 2020, published 2023).
Peptide text beside a SMILES is read from it.

Key:
[1] = test system: Escherichia coli MCR-1 Af 45; conditions: MCR-1 Af 45
Summary of the method: (§1)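 Two-fold serial dilutions of peptide, in water with polysorbate 80 (0.002% final), met bacteria adjusted to 0.5 McFarland then diluted to about 5×10^5 CFU/mL. Medium was cation-adjusted Mueller-Hinton II broth; peptide stocks were 1 mg/mL in sterile water.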

[2] = test system: Escherichia coli ATCC 25922; conditions: ATCC 25922
Summary of the method: as §1

[3] = test system: Klebsiella pneumoniae SSI3010; conditions: SSI3010
Summary of the method: as §1

[4] = test system: human red blood cells (hRBC); assay: Hemolysis of human red blood cells; type: cell-based; conditions: red cells of human, 1 h
Summary of the method: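 PBS-washed human red blood cells (20% v/v) were incubated with peptide at 200 μg/mL for 1 h at 37 °C with shaking. Supernatant OD was read at 540 nm after 8-fold dilution. Hemolysis is expressed as percent of the water control.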

Compound	Escherichia coli MCR-1 Af 45 MIC [1] [µg/mL]	Escherichia coli ATCC 25922 MIC [2] [µg/mL]	Klebsiella pneumoniae SSI3010 MIC [3] [µg/mL]	Hemolysis at 0.2 g/L [4] [%]
CC[C@H](C)[C@H](NC(=O)[C@@H]1CCCN1C(=O)[C@@H](NC(=O)CN(C)C(=O)[C@H](CCCNC(=N)N)NC(=O)[C@@H](N)CCCCN)C(C)C)C(=O)N[C@H](C(=O)N[C@@H](Cc1ccc(O)cc1)C(=O)N[C@@H]1C(=O)N[C@@H](CC(N)=O)C(=O)N[C@@H](CCCNC(=N)N)C(=O)N[C@@H](CCN)C(=O)N[C@@H]([C@@H](C)O)C(=O)N[C@H](CCN)C(=O)N[C@@H](CCCCN)C(=O)N[C@H](C(=O)N[C@@H](CCN)C(=O)N[C@@H](CCCNC(=N)N)C(=O)N[C@@H](Cc2ccc(O)cc2)C(=O)O)CSSC1(C)C)[C@@H](C)O [Example 88, Lys-Arg-Sar-Val-Pro-Ile-Thr-Tyr-Pen-Asn-Arg-Dab-Thr-^DDab-Lys-Cys-Dab-Arg-Tyr] (HELM PEPTIDE1{K.R.[Sar].V.P.I.T.Y.[Pen].N.R.[Dab].T.[NCC[C@@H](N[*:1])C(=O)[*:2]].K.C.[Dab].R.Y}$PEPTIDE1,PEPTIDE1,9:R3-16:R3$$$V2.0)	≤0.03125	≤0.03125	0.0625	0
CC[C@H](C)[C@H](NC(=O)[C@@H]1CCCN1C(=O)[C@@H](NC(=O)CN(C)C(=O)[C@H](CCCNC(=N)N)NC(=O)[C@@H](N)CCCCN)C(C)C)C(=O)N[C@@H](Cc1ccccc1)C(=O)N[C@@H](Cc1ccc(O)cc1)C(=O)N[C@@H]1C(=O)N[C@@H](CC(N)=O)C(=O)N[C@@H](CCCNC(=N)N)C(=O)N[C@@H](CCN)C(=O)N[C@@H]([C@@H](C)O)C(=O)N[C@H](CCN)C(=O)N[C@@H](CCCCN)C(=O)N[C@H](C(=O)N[C@@H](CCN)C(=O)N[C@@H](CCCNC(=N)N)C(=O)N[C@@H](Cc2ccc(O)cc2)C(=O)O)CSSC1(C)C [Example 89, Lys-Arg-Sar-Val-Pro-Ile-Phe-Tyr-Pen-Asn-Arg-Dab-Thr-^DDab-Lys-Cys-Dab-Arg-Tyr] (HELM PEPTIDE1{K.R.[Sar].V.P.I.F.Y.[Pen].N.R.[Dab].T.[NCC[C@@H](N[*:1])C(=O)[*:2]].K.C.[Dab].R.Y}$PEPTIDE1,PEPTIDE1,9:R3-16:R3$$$V2.0)	≤0.03125	0.0625	0.0625	0
CC[C@H](C)[C@H](NC(=O)[C@@H](NC(=O)[C@@H]1CCCN1C(=O)[C@@H](NC(=O)[C@@H]1CCCN1C(=O)CN(C)C(=O)[C@@H](N)CCCCN)C(C)C)[C@@H](C)CC)C(=O)N[C@@H](Cc1ccc(O)cc1)C(=O)N[C@@H]1C(=O)N[C@@H](CC(N)=O)C(=O)N[C@@H](CCCNC(=N)N)C(=O)N[C@@H](CCN)C(=O)N[C@@H]([C@@H](C)O)C(=O)N[C@H](CCN)C(=O)N[C@@H](CCCCN)C(=O)N[C@H](C(=O)N[C@@H](CCN)C(=O)N[C@@H](CCCNC(=N)N)C(=O)N[C@@H](Cc2ccc(O)cc2)C(=O)O)CSSC1(C)C [Example 92, Lys-Sar-Pro-Val-Pro-Ile-Ile-Tyr-Pen-Asn-Arg-Dab-Thr-^DDab-Lys-Cys-Dab-Arg-Tyr] (HELM PEPTIDE1{K.[Sar].P.V.P.I.I.Y.[Pen].N.R.[Dab].T.[NCC[C@@H](N[*:1])C(=O)[*:2]].K.C.[Dab].R.Y}$PEPTIDE1,PEPTIDE1,9:R3-16:R3$$$V2.0)	≤0.03125	0.0625	0.0625	0
CC[C@H](C)[C@H](NC(=O)[C@@H](NC(=O)[C@@H]1CCCN1C(=O)[C@@H](NC(=O)[C@@H]1CCCN1C(=O)[C@H](CCCCN)NC(=O)CNCCN)C(C)C)[C@@H](C)CC)C(=O)N[C@@H](Cc1ccc(O)cc1)C(=O)N[C@H]1CSSC[C@@H](C(=O)N[C@@H](CCN)C(=O)N[C@@H](CCCNC(=N)N)C(=O)N[C@@H](Cc2ccc(O)cc2)C(=O)O)NC(=O)[C@H](CCCCN)NC(=O)[C@@H](CCN)NC(=O)[C@H]([C@@H](C)O)NC(=O)[C@H](CCN)NC(=O)[C@H](CCCNC(=N)N)NC(=O)[C@H](CC(N)=O)NC1=O [Example 96] (HELM PEPTIDE1{[NCCNCC(=O)[*:2]].K.P.V.P.I.I.Y.C.N.R.[Dab].T.[NCC[C@@H](N[*:1])C(=O)[*:2]].K.C.[Dab].R.Y}$PEPTIDE1,PEPTIDE1,9:R3-16:R3$$$V2.0)	0.0625	0.0625	0.125	0

Second part, led by results:

Escherichia coli MCR-1 Af 45 MIC [1] [µg/mL]	Escherichia coli ATCC 25922 MIC [2] [µg/mL]	Klebsiella pneumoniae SSI3010 MIC [3] [µg/mL]	Compound	Hemolysis at 0.2 g/L [4] [%]
0.0625	0.25	0.125	CC[C@H](C)[C@H](NC(=O)[C@@H](NC(=O)[C@@H]1CCCN1C(=O)[C@@H](NC(=O)[C@@H]1CCCN1C(=O)[C@@H](C)NC(=O)[C@@H](N)CCCCN)C(C)C)[C@@H](C)CC)C(=O)N[C@@H](Cc1ccc(O)cc1)C(=O)N[C@@H]1C(=O)N[C@@H](CC(N)=O)C(=O)N[C@@H](CCCNC(=N)N)C(=O)N[C@@H](CCN)C(=O)N[C@@H]([C@@H](C)O)C(=O)N[C@H](CCN)C(=O)N[C@@H](CCCCN)C(=O)N[C@H](C(=O)N[C@@H](CCN)C(=O)N[C@@H](CCCNC(=N)N)C(=O)N[C@@H](Cc2ccc(O)cc2)C(=O)O)CSSC1(C)C [Example 90, Lys-^DAla-Pro-Val-Pro-Ile-Ile-Tyr-Pen-Asn-Arg-Dab-Thr-^DDab-Lys-Cys-Dab-Arg-Tyr] (HELM PEPTIDE1{K.[dA].P.V.P.I.I.Y.[Pen].N.R.[Dab].T.[NCC[C@@H](N[*:1])C(=O)[*:2]].K.C.[Dab].R.Y}$PEPTIDE1,PEPTIDE1,9:R3-16:R3$$$V2.0)	0
≤0.03125	0.125	0.125	CC[C@H](C)[C@H](NC(=O)[C@@H](NC(=O)[C@@H]1CCCN1C(=O)[C@@H](NC(=O)[C@@H]1CCCN1C(=O)CNC(=O)[C@@H](N)CCCCN)C(C)C)[C@@H](C)CC)C(=O)N[C@@H](Cc1ccc(O)cc1)C(=O)N[C@@H]1C(=O)N[C@@H](CC(N)=O)C(=O)N[C@@H](CCCNC(=N)N)C(=O)N[C@@H](CCN)C(=O)N[C@@H]([C@@H](C)O)C(=O)N[C@H](CCN)C(=O)N[C@@H](CCCCN)C(=O)N[C@H](C(=O)N[C@@H](CCN)C(=O)N[C@@H](CCCNC(=N)N)C(=O)N[C@@H](Cc2ccc(O)cc2)C(=O)O)CSSC1(C)C [Example 91] (HELM PEPTIDE1{K.G.P.V.P.I.I.Y.[Pen].N.R.[Dab].T.[NCC[C@@H](N[*:1])C(=O)[*:2]].K.C.[Dab].R.Y}$PEPTIDE1,PEPTIDE1,9:R3-16:R3$$$V2.0)	0
0.0625	0.0625	0.125	CC[C@H](C)[C@H](NC(=O)[C@@H](NC(=O)[C@@H]1CCCN1C(=O)[C@@H](NC(=O)CNC(=O)CNC(=O)[C@@H](N)CCCCN)C(C)C)[C@@H](C)CC)C(=O)N[C@@H](Cc1ccc(O)cc1)C(=O)N[C@@H]1C(=O)N[C@@H](CC(N)=O)C(=O)N[C@@H](CCCNC(=N)N)C(=O)N[C@@H](CCN)C(=O)N[C@@H]([C@@H](C)O)C(=O)N[C@H](CCN)C(=O)N[C@@H](CCCCN)C(=O)N[C@H](C(=O)N[C@@H](CCN)C(=O)N[C@@H](CCCNC(=N)N)C(=O)N[C@@H](Cc2ccc(O)cc2)C(=O)O)CSSC1(C)C [Example 93] (HELM PEPTIDE1{K.G.G.V.P.I.I.Y.[Pen].N.R.[Dab].T.[NCC[C@@H](N[*:1])C(=O)[*:2]].K.C.[Dab].R.Y}$PEPTIDE1,PEPTIDE1,9:R3-16:R3$$$V2.0)	0
≤0.03125	0.125	0.125	CC[C@H](C)[C@H](NC(=O)[C@@H](NC(=O)[C@@H]1CCCN1C(=O)[C@@H](NC(=O)CN(C)C(=O)CNC(=O)[C@@H](N)CCCCN)C(C)C)[C@@H](C)CC)C(=O)N[C@@H](Cc1ccc(O)cc1)C(=O)N[C@@H]1C(=O)N[C@@H](CC(N)=O)C(=O)N[C@@H](CCCNC(=N)N)C(=O)N[C@@H](CCN)C(=O)N[C@@H]([C@@H](C)O)C(=O)N[C@H](CCN)C(=O)N[C@@H](CCCCN)C(=O)N[C@H](C(=O)N[C@@H](CCN)C(=O)N[C@@H](CCCNC(=N)N)C(=O)N[C@@H](Cc2ccc(O)cc2)C(=O)O)CSSC1(C)C [Example 94, Lys-Gly-Sar-Val-Pro-Ile-Ile-Tyr-Pen-Asn-Arg-Dab-Thr-^DDab-Lys-Cys-Dab-Arg-Tyr] (HELM PEPTIDE1{K.G.[Sar].V.P.I.I.Y.[Pen].N.R.[Dab].T.[NCC[C@@H](N[*:1])C(=O)[*:2]].K.C.[Dab].R.Y}$PEPTIDE1,PEPTIDE1,9:R3-16:R3$$$V2.0)	0
0.125	0.125	0.25	CC[C@H](C)[C@H](NC(=O)[C@@H](NC(=O)[C@@H]1CCCN1C(=O)[C@@H](NC(=O)CN(C)C(=O)CN(C)C(=O)[C@@H](N)CCCCN)C(C)C)[C@@H](C)CC)C(=O)N[C@@H](Cc1ccc(O)cc1)C(=O)N[C@@H]1C(=O)N[C@@H](CC(N)=O)C(=O)N[C@@H](CCCNC(=N)N)C(=O)N[C@@H](CCN)C(=O)N[C@@H]([C@@H](C)O)C(=O)N[C@H](CCN)C(=O)N[C@@H](CCCCN)C(=O)N[C@H](C(=O)N[C@@H](CCN)C(=O)N[C@@H](CCCNC(=N)N)C(=O)N[C@@H](Cc2ccc(O)cc2)C(=O)O)CSSC1(C)C [Example 95, Lys-Sar-Sar-Val-Pro-Ile-Ile-Tyr-Pen-Asn-Arg-Dab-Thr-^DDab-Lys-Cys-Dab-Arg-Tyr] (HELM PEPTIDE1{K.[Sar].[Sar].V.P.I.I.Y.[Pen].N.R.[Dab].T.[NCC[C@@H](N[*:1])C(=O)[*:2]].K.C.[Dab].R.Y}$PEPTIDE1,PEPTIDE1,9:R3-16:R3$$$V2.0)	0
